Columns and labels:
[1] = test system: patients with mild to moderate osteoarthritis of the knee; experiment: Randomised, single-blind, active-controlled pilot clinical study, clinical endpoints (VAS, range of motion, WOMAC); format: in vivo, human; conditions: oral 200 mg/day, n = 50; for WOMAC scores Stiffness: range 0-8; for WOMAC scores Pain: range 0-20; for WOMAC scores Physical functionality: range 0-68; for WOMAC scores Total: range 0 to 96
Protocol: (§1) The inclusion criteria were as follows: 1) presence of symptoms for at least one month, 2) number of leukocytes in synovial fluid < 2000/ml, 3) pain on a visual analogue scale (VAS) ≥ 2 at rest and 4) duration of stiffness in the morning ≤ 30 min. The following exclusion criteria were applied: 1) pregnancy or breastfeeding, 2) history of severe renal, hepatic, cardiac, gastrointestinal or haematological diseases, 3) presence of malignant tumours, 4) presence of neurological or psychiatric disorders, 5) atopy or allergic disorders, 6) diabetes mellitus or other endocrine disorders, 7) coagulation disorders, 8) history of peptic ulcer disease, 9) use of corticosteroid in the four weeks prior to the study and 10) use of NSAIDs in the two weeks prior to the study. According to the Kellgren-Lawrence classification system, 61.3% and 38.7% of patients in the study had scores of 1 and 2, respectively.
The study period was two weeks.
Patients (n = 150) were randomised into three study groups (1:1:1 ratio). The randomisation sequence was generated by a special software.
A total of three assessments were performed (at baseline, one week and at the end of the 2-week treatment period).
Clinical endpoints included: • 1) patient's evaluation of the arthritis pain score (VAS) at rest (range: 0-10; where 0 is no pain and 10 is maximum pain), • 2) patient's evaluation of the arthritis pain score (VAS) at movement (range: 0-10; where 0 is no pain and 10 is maximum pain), • 3) joint motion range (degrees) and • 4) WOMAC (Western Ontario and McMaster University) index score [Salaffi et al. Osteoarthritis cartilage 2003; 11: 551-60].
WOMAC score consists of sub-scales that measure pain (range: 0-20; where 0 is no pain and 20 is the maximum pain), stiffness (range: 0-8, where 0 is no stiffness and 8 is the maximum stiffness) and physical functionality (range: 0-68, where 0 is the best functionality and 68 is the worst functionality). The resulting total composite score ranges from 0 to 96.

substance P = experiment: Serum substance P levels (ELISA) in the clinical study; conditions: oral 200 mg/day, n = 50
human neutrophils = experiment: MTT cell viability test; format: cell-based; conditions: 1% solution, 24 hours; untreated cells = 100%
Protocol: Human neutrophils were isolated from whole blood samples taken from 10 healthy volunteers (5 men and 5 women, mean age: 34.1 ± 3.7 years) using the EasySep™ Direct human neutrophil isolation kit ([…] Technologies, Vancouver, Canada). After isolation, neutrophils were resuspended at a concentration of 5 * 10^6 cells/ml in Hank's balanced saline solution (37°C) containing 10 mM of HEPES pH 7.4, 1.6 mM Ca^2+ and not Mg^2+.
Cell viability was determined using the MTT test kit (Promega, Madison, WI, USA) according to the manufacturer's protocol (MTT: 3-(4,5-dimethylthiazol-2-yl)-2,5-diphenyltetrazolium bromide). In order to determine the cytotoxicity of the herbal extract of the invention, the cells were incubated with aqueous solutions of the herbal extract of the invention at three different concentrations (1%, 3% and 5%) for 24 hours. The cultures of the control group were not treated and the viability thereof was set to 100%. […] Int J Pharm Sei (2012) 3: 2325-2336]. […] Absorbance was subsequently measured with a microplate reader (Bio-Tek, Winooski, VT, USA) at a test wavelength of 595 nm and a reference wavelength of 690 nm. The optical density (OD) was calculated as the […]. The viability percentage was calculated using the following formula: (OD of treated sample / control OD) x 100.

[2] = Safety in the clinical study (treatment-emergent adverse events, laboratory tests); format: in vivo, human; conditions: oral 200 mg/day for 2 weeks, n = 50
Protocol: as §1
Safety was evaluated by recording treatment-emergent adverse events and changes with respect to the baseline in clinical laboratory tests, in vital signs and in objective examinations, all of which were performed during visits at weeks 1 and 2. Clinically relevant changes in laboratory values were defined as: • aspartate aminotransferase (AST) and/or alanine transaminase (ALT) ≥ 3 × upper limit of normal (ULN), • creatinine ≥ 1.3 × ULN, • blood urea nitrogen (BUN) ≥ 2 × ULN, • decrease in haematocrit value ≥ 5 percentage points with respect to the baseline and • decrease in haemoglobin value ≥ 2 g/dl from baseline.

PGE2 = PGE2 enzyme immunoassay in LPS-stimulated neutrophils; format: cell-based, human; conditions: 5 µg/ml of LPS plus test substance 1%, 24 hours
Protocol: Human neutrophils were isolated from whole blood samples taken from 10 healthy volunteers (5 men and 5 women, mean age: 34.1 ± 3.7 years) using the EasySep™ Direct human neutrophil isolation kit ([sequence] Technologies, Vancouver, Canada). After isolation, neutrophils were resuspended at a concentration of 5 * 10^6 cells/ml in Hank's balanced saline solution (37°C) containing 10 mM of HEPES pH 7.4, 1.6 mM Ca^2+ and not Mg^2+.
Experiments were conducted on RPMI medium (RPMI: Rosewell Park Memorial Institute, cation-deficient medium Ca2+ and Mg2+ commonly used for white blood line cells) supplemented with 1% fetal bovine serum (37°C, 5% CO2, 95% humidity) after seeding neutrophils (5x10^5 cells/well) in a 96-well plate.
Evaluation of PGE2 concentrations in each well under six different experimental conditions was conducted using a commercially available competitive PGE2 enzyme immunoassay kit (GE Healthcare, Milwaukee, WI, USA). All tests were conducted three times.

Structure (SMILES): Cc1ccc(-c2cc(C(F)(F)F)nn2-c2ccc(S(N)(=O)=O)cc2)cc1 [Celecoxib]
- Pain at motion, VAS (0-10) ([1]; Baseline): 3.8 ± 0.6
- Pain at rest, VAS (0-10) ([1]; Baseline): 2.9 ± 0.4
- Range of motion (degrees) ([1]; Baseline): 134 ± 10 degrees
- WOMAC scores Stiffness ([1]; Baseline): 1.4 ± 0.3
- WOMAC scores Pain ([1]; Baseline): 5.7 ± 0.8
- WOMAC scores Physical functionality ([1]; Baseline): 20.5 ± 3.2
- WOMAC scores Total ([1]; Baseline): 27.6 ± 3.8
- Pain at motion, VAS (0-10) ([1]; End of study (2 weeks)): 2.2 ± 0.4
- Pain at rest, VAS (0-10) ([1]; End of study (2 weeks)): 1.5 ± 0.4
- Range of motion (degrees) ([1]; End of study (2 weeks)): 173 ± 19 degrees
- WOMAC scores Stiffness ([1]; End of study (2 weeks)): 0.7 ± 0.1
- WOMAC scores Pain ([1]; End of study (2 weeks)): 3.0 ± 0.9
- WOMAC scores Physical functionality ([1]; End of study (2 weeks)): 11.4 ± 1.7
- WOMAC scores Total ([1]; End of study (2 weeks)): 15.1 ± 2.2
- Pain at motion, VAS (0-10) ([1]; One week): 2.9 ± 0.5
- Pain at rest, VAS (0-10) ([1]; One week): 2.0 ± 0.3
- Range of motion (degrees) ([1]; One week): 160 ± 15 degrees
- WOMAC scores Stiffness ([1]; One week): 1.0 ± 0.2
- WOMAC scores Pain ([1]; One week): 4.1 ± 0.9
- WOMAC scores Physical functionality ([1]; One week): 14.6 ± 2.1
- WOMAC scores Total ([1]; One week): 19.7 ± 2.9
- SP (serum substance P) (substance P; Baseline): 436 ± 95 pg/mL
- SP (serum substance P) (substance P; End of study (2 weeks)): 299 ± 64 pg/mL
- SP (serum substance P) (substance P; One week): 358 ± 78 † pg/ml
- cell viability (MTT), % of the control value (human neutrophils): 90 ± 2%
- Gastrointestinal adverse events: Constipation [2]: 2 (4%) number of patients (percentages in brackets)
- Gastrointestinal adverse events: Nausea [2]: 2 (4%) number of patients (percentages in brackets)
- Other adverse events: Headache [2]: 3 (6%) number of patients (percentages in brackets)
- Other adverse events: Itching [2]: 1 (2%) number of patients (percentages in brackets)
- changes with respect to the baseline in laboratory safety tests [2]: no changes with respect to the baseline
- PGE2 levels (PGE2): 19.21 ± 2.39 pg/well
